Measurements: ChEMBL document CHEMBL1150615, “Swinhoeiamide A, a new highly active calyculin derivative from the marine sponge Theonella swinhoei” (2002)
≈ marks a conversion by molar mass, not a printed value.

How the values were obtained:
Format in all cases: functional
[1] = system: Spodoptera littoralis; assay: Insecticidal activity against Spodoptera littoralis larvae dosed into hemolymph injection measured per 1000 mg of larval body weight measured after 48 hrs
[2] = system: Cladosporium cucumerinum; assay: Antifungal activity against Cladosporium cucumerinum at 25 nmol by bioautographic method
[3] = system: Aspergillus fumigatus; assay: Antifungal activity against Aspergillus fumigatus by serial dilution assay
[4] = system: Spodoptera littoralis; assay: Insecticidal activity against Spodoptera littoralis larvae after 6 days by chronic feeding assay; settings: 144 h
[5] = system: Candida albicans; assay: Antifungal activity against Candida albicans by serial dilution assay
[6] = system: Spodoptera littoralis; assay: Insecticidal activity against Spodoptera littoralis larvae after 5 days by topical contact assay

Molecule `COC[C@@H]([C@H](O)[C@H](O)C(=O)NCC[C@H](C)c1nc(/C=C/C[C@@H]2O[C@]3(C[C@@H](O)[C@@H]2C)O[C@H]([C@H](C[C@H](O)[C@H](C)[C@H](O)[C@H](C)/C=C(C)/C(C)=C/C=C/C(C)=C\C#N)OC)[C@H](OP(=O)(O)O)C3(C)C)co1)N(C)C` [CALYCULIN A] has an LD50 [1] of 1 µg.
With `CO[C@H]1C[C@]2(O[C@H]([C@@H](C[C@H](O)[C@H](C)[C@H](O)[C@H](C)/C=C(C)/C(C)=C/CC/C(C)=C\C(N)=O)OC)[C@H](OP(=O)(O)O)C2(C)C)O[C@H](C/C=C/c2coc(C)n2)[C@H]1C` [SWINHOEIAMIDE A] the “inhibition zone (IZ)” value [2] was 14 mm, the LD50 [1] was 0.98 µg and the MIC [3] was 1 µg/mL (≈ 1.25 µM). The LC50 [4] was 2.98 µg/mL (≈ 3.74 µM), the MIC [5] was 1.2 µg/mL (≈ 1.51 µM) and the LD50 [6] was 10 µg.
